Patent US9902736B2, “1-oxo/acylation-14-acylated oridonin derivative, preparation method therefor and application thereof” (HANGZHOU BENSHENG PHARMACEUTICAL CO., LTD., priority 2012, dated 2018)
Converted amounts (≈) assume the structure as drawn.

Experiments:
[1] = tested on: K562/ADR; assay: Leukemia cell growth inhibition, MTT, 72 h; format: cell-based; conditions: Homo sapiens
Outline: (§1)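 MTT read-out of viable cell concentration after 72 hours of exposure at 37° C under 5% CO2. Compounds were dosed at several concentrations one day after plating 6000 cells per well.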

[2] = tested on: Kasumi-1; assay: Leukemia cell growth inhibition, MTT, 72 h; format: cell-based; conditions: Homo sapiens
Outline: as §1

[3] = tested on: H9; assay: Leukemia cell growth inhibition, MTT, 72 h; format: cell-based, human; conditions: Homo sapiens, H9; 72 h, MTT
Outline: as §1

[4] = tested on: Jurkat; assay: Leukemia cell growth inhibition, MTT, 72 h; format: cell-based, human; conditions: for IC50 / IC90: Homo sapiens, Jurkat, 72 h, MTT
Outline: as §1

[5] = tested on: NB4; assay: Leukemia cell growth inhibition, MTT, 72 h; format: cell-based, human; conditions: Homo sapiens, NB-4; 72 h, MTT
Outline: as §1

[6] = tested on: RPMI 8226; assay: Multiple myeloma cell growth inhibition, MTT, 72 h; format: cell-based; conditions: Homo sapiens
Outline: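 Growth inhibition by MTT after 72 h drug exposure (37 °C, 5% CO2) over a concentration range of oridonin derivatives. RPMI 8226 cells plated at 6000 per well and dosed the following day.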

[7] = tested on: CNE; assay: Solid tumor cell growth inhibition, MTT, 72 h; format: cell-based, human; conditions: Homo sapiens, CNE; 72 h, MTT
Outline: (§2)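 Viable cell concentration served as the readout. Cells (6000 per well) grown in DMEM High Glucose containing 10% FBS received the derivatives at several concentrations following an initial day of culture at 37° C, 5% CO2.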

[8] = tested on: Hela; assay: Solid tumor cell growth inhibition, MTT, 72 h; format: cell-based, human; conditions: Homo sapiens, HeLa; 72 h, MTT
Outline: as §2

[9] = tested on: Hep-2; assay: Solid tumor cell growth inhibition, MTT, 72 h; format: cell-based, human; conditions: Homo sapiens, HEp-2; 72 h, MTT
Outline: as §2

[10] = tested on: MGC-803; assay: Solid tumor cell growth inhibition, MTT, 72 h; format: cell-based, human; conditions: Homo sapiens, MGC-803; 72 h, MTT
Outline: as §2

[11] = tested on: A549; assay: Solid tumor cell growth inhibition, MTT, 72 h; format: cell-based; conditions: Homo sapiens
Outline: as §2

[12] = tested on: Becap-37; assay: Solid tumor cell growth inhibition, MTT, 72 h; format: cell-based; conditions: Homo sapiens
Outline: as §2

[13] = tested on: CaEs-17; assay: Solid tumor cell growth inhibition, MTT, 72 h; format: cell-based; conditions: Homo sapiens, CaEs17
Outline: as §2

[14] = tested on: Hep G2; assay: Solid tumor cell growth inhibition, MTT, 72 h; format: cell-based; conditions: Homo sapiens, HepG2
Outline: as §2

[15] = tested on: MG-63; assay: Solid tumor cell growth inhibition, MTT, 72 h; format: cell-based; conditions: Homo sapiens
Outline: as §2

[16] = tested on: PANC-1; assay: Solid tumor cell growth inhibition, MTT, 72 h; format: cell-based; conditions: Homo sapiens
Outline: as §2

[17] = tested on: PC-3; assay: Solid tumor cell growth inhibition, MTT, 72 h; format: cell-based; conditions: Homo sapiens
Outline: as §2

[18] = tested on: RKO; assay: Solid tumor cell growth inhibition, MTT, 72 h; format: cell-based; conditions: Homo sapiens
Outline: as §2

[19] = tested on: SK-OV-3; assay: Solid tumor cell growth inhibition, MTT, 72 h; format: cell-based; conditions: Homo sapiens, SK-OV-3, 72 h, MTT; for IC50: read-out: IC50 SK-OV-3; for IC90: read-out: IC90 SK-OV-3
Outline: as §2

[20] = tested on: U87-MG; assay: Solid tumor cell growth inhibition, MTT, 72 h; format: cell-based; conditions: Homo sapiens, U-87 MG
Outline: as §2

`C=C1C(=O)[C@]23[C@H](OC(=O)c4ccc(OC)cc4)[C@H]1CC[C@H]2[C@@]12CO[C@@]3(O)[C@@H](O)[C@@H]1C(C)(C)CCC2=O` [BS-OR-005] gave an IC50 [1] of 0.4 µg/mL (≈ 0.806 µM), an IC90 [1] of 1.44 µg/mL (≈ 2.9 µM) and an IC50 [2] of 0.43 µg/mL (≈ 0.866 µM). It also gave an IC90 [2] of 1.05 µg/mL (≈ 2.11 µM), an IC50 [3] of 0.38 µg/mL (≈ 0.765 µM) and an IC90 [3] of 0.92 µg/mL (≈ 1.85 µM). The IC50 [4] was 0.44 µg/mL (≈ 0.886 µM), the IC90 [4] was 2.88 µg/mL (≈ 5.8 µM) and the “anti-Jurkat cell line activity increased” value ([4]; as compared with oridonin) was ~4 fold. The IC50 [5] was 0.07 µg/mL (≈ 0.141 µM), the IC90 [5] was 0.49 µg/mL (≈ 0.987 µM) and the IC50 [6] was 0.26 µg/mL (≈ 0.524 µM). For the same molecule, the IC90 [6] was 0.96 µg/mL (≈ 1.93 µM), the IC50 [7] was 1.09 µg/mL (≈ 2.2 µM) and the IC90 [7] was 4.45 µg/mL (≈ 8.96 µM). For the same molecule, the IC50 [8] was 1.16 µg/mL (≈ 2.34 µM), the IC90 [8] was 3.4 µg/mL (≈ 6.85 µM) and the IC50 [9] was 1.3 µg/mL (≈ 2.62 µM). The IC90 [9] was 5.6 µg/mL (≈ 11.3 µM), the IC50 [10] was 0.7 µg/mL (≈ 1.41 µM) and the IC90 [10] was 5.4 µg/mL (≈ 10.9 µM). It also gave an IC50 [11] of 1.71 µg/mL (≈ 3.44 µM), an IC90 [11] of 4.31 µg/mL (≈ 8.68 µM) and an IC50 [12] of 0.7 µg/mL (≈ 1.41 µM). The IC90 [12] was 2.78 µg/mL (≈ 5.6 µM), the IC50 [13] was 0.81 µg/mL (≈ 1.63 µM) and the IC90 [13] was 3.03 µg/mL (≈ 6.1 µM). The IC50 [14] was 0.84 µg/mL (≈ 1.69 µM), the IC90 [14] was 5.27 µg/mL (≈ 10.6 µM) and the IC50 [15] was 0.28 µg/mL (≈ 0.564 µM). It also gave an IC90 [15] of 0.75 µg/mL (≈ 1.51 µM), an IC50 [16] of 1.26 µg/mL (≈ 2.54 µM) and an IC90 [16] of 4.91 µg/mL (≈ 9.89 µM). It also gave an IC50 [17] of 1.22 µg/mL (≈ 2.46 µM), an IC90 [17] of 3.16 µg/mL (≈ 6.36 µM) and an IC50 [18] of 0.31 µg/mL (≈ 0.624 µM). It also gave an IC90 [18] of 0.84 µg/mL (≈ 1.69 µM), an IC50 [19] of 1.22 µg/mL (≈ 2.46 µM) and an IC90 [19] of 3.16 µg/mL (≈ 6.36 µM). The IC50 [20] was 0.7 µg/mL (≈ 1.41 µM) and the IC90 [20] was 2.16 µg/mL (≈ 4.35 µM).
`C=C1C(=O)[C@]23[C@H](OC(=O)C4CCC(NC(=O)c5ccccn5)CC4)[C@H]1CC[C@H]2[C@@]12CO[C@@]3(O)[C@@H](O)[C@@H]1C(C)(C)CCC2=O` (stereo partly shown) [BS-OR-083] was tested, and the IC50 [1] was 0.58 µg/mL (≈ 0.979 µM), the IC90 [1] was 1.94 µg/mL (≈ 3.27 µM) and the IC50 [2] was 1.09 µg/mL (≈ 1.84 µM). For the same molecule, the IC90 [2] was 2.59 µg/mL (≈ 4.37 µM), the IC50 [3] was 0.56 µg/mL (≈ 0.945 µM) and the IC90 [3] was 1.54 µg/mL (≈ 2.6 µM). The IC50 [4] was 0.89 µg/mL (≈ 1.5 µM), the IC90 [4] was 4.13 µg/mL (≈ 6.97 µM) and the IC50 [5] was 0.31 µg/mL (≈ 0.523 µM). The IC90 [5] was 0.99 µg/mL (≈ 1.67 µM), the IC50 [6] was 0.85 µg/mL (≈ 1.43 µM) and the IC90 [6] was 2.92 µg/mL (≈ 4.93 µM). For the same molecule, the IC50 [7] was 1.52 µg/mL (≈ 2.56 µM), the IC90 [7] was 4.42 µg/mL (≈ 7.46 µM) and the IC50 [8] was 1.92 µg/mL (≈ 3.24 µM). The IC90 [8] was 4.95 µg/mL (≈ 8.35 µM), the IC50 [9] was 3.13 µg/mL (≈ 5.28 µM) and the IC90 [9] was 15.5 µg/mL (≈ 26.2 µM). The IC50 [10] was 1.26 µg/mL (≈ 2.13 µM), the IC90 [10] was 5.57 µg/mL (≈ 9.4 µM) and the IC50 [11] was 5.07 µg/mL (≈ 8.55 µM). It also gave an IC90 [11] of 11.3 µg/mL (≈ 19.1 µM), an IC50 [12] of 2.21 µg/mL (≈ 3.73 µM) and an IC90 [12] of 6.5 µg/mL (≈ 11 µM). The IC50 [13] was 1.71 µg/mL (≈ 2.89 µM), the IC90 [13] was 10.2 µg/mL (≈ 17.2 µM) and the IC50 [14] was 2.83 µg/mL (≈ 4.77 µM). The IC90 [14] was 11.9 µg/mL (≈ 20.1 µM), the IC50 [15] was 0.76 µg/mL (≈ 1.28 µM) and the IC90 [15] was 1.7 µg/mL (≈ 2.87 µM). It also gave an IC50 [16] of 3.14 µg/mL (≈ 5.3 µM), an IC90 [16] of 9.16 µg/mL (≈ 15.5 µM) and an IC50 [17] of 3.16 µg/mL (≈ 5.33 µM). For the same molecule, the IC90 [17] was 6.8 µg/mL (≈ 11.5 µM), the IC50 [18] was 0.68 µg/mL (≈ 1.15 µM) and the IC90 [18] was 1.68 µg/mL (≈ 2.83 µM). The IC50 [19] was 3.16 µg/mL (≈ 5.33 µM), the IC90 [19] was 6.8 µg/mL (≈ 11.5 µM) and the IC50 [20] was 1.29 µg/mL (≈ 2.18 µM). For the same molecule, the IC90 [20] was 4.61 µg/mL (≈ 7.78 µM).
Work on `C=C1C(=O)[C@]23[C@H](OC(=O)c4ccccc4)[C@H]1CC[C@H]2[C@@]12CO[C@@]3(O)[C@@H](O)[C@@H]1C(C)(C)CCC2=O` [BS-OR-001] yielded an IC50 [1] of 0.6 µg/mL (≈ 1.29 µM), an IC90 [1] of 1.73 µg/mL (≈ 3.71 µM) and an IC50 [2] of 0.72 µg/mL (≈ 1.54 µM). For the same molecule, the IC90 [2] was 1.86 µg/mL (≈ 3.99 µM), the IC50 [3] was 0.45 µg/mL (≈ 0.965 µM) and the IC90 [3] was 0.95 µg/mL (≈ 2.04 µM). The IC50 [4] was 0.68 µg/mL (≈ 1.46 µM), the IC90 [4] was 2.63 µg/mL (≈ 5.64 µM) and the IC50 [5] was 0.14 µg/mL (≈ 0.3 µM). For the same molecule, the IC90 [5] was 0.47 µg/mL (≈ 1.01 µM), the IC50 [6] was 0.41 µg/mL (≈ 0.879 µM) and the IC90 [6] was 1.89 µg/mL (≈ 4.05 µM). For the same molecule, the IC50 [7] was 1.41 µg/mL (≈ 3.02 µM), the IC90 [7] was 5.45 µg/mL (≈ 11.7 µM) and the IC50 [8] was 1.65 µg/mL (≈ 3.54 µM). The IC90 [8] was 4.67 µg/mL (≈ 10 µM), the IC50 [9] was 1.64 µg/mL (≈ 3.52 µM) and the IC90 [9] was 7.7 µg/mL (≈ 16.5 µM). For the same molecule, the IC50 [10] was 0.88 µg/mL (≈ 1.89 µM), the IC90 [10] was 11 µg/mL (≈ 23.5 µM) and the IC50 [11] was 2.6 µg/mL (≈ 5.57 µM). The IC90 [11] was 6.08 µg/mL (≈ 13 µM), the IC50 [12] was 1.12 µg/mL (≈ 2.4 µM) and the IC90 [12] was 3.79 µg/mL (≈ 8.12 µM). It also gave an IC50 [13] of 1.21 µg/mL (≈ 2.59 µM), an IC90 [13] of 5.47 µg/mL (≈ 11.7 µM) and an IC50 [14] of 0.98 µg/mL (≈ 2.1 µM). For the same molecule, the IC90 [14] was 10.6 µg/mL (≈ 22.7 µM), the IC50 [15] was 0.47 µg/mL (≈ 1.01 µM) and the IC90 [15] was 0.99 µg/mL (≈ 2.12 µM). For the same molecule, the IC50 [16] was 1.79 µg/mL (≈ 3.84 µM), the IC90 [16] was 6.42 µg/mL (≈ 13.8 µM) and the IC50 [17] was 1.67 µg/mL (≈ 3.58 µM). For the same molecule, the IC90 [17] was 3.8 µg/mL (≈ 8.15 µM), the IC50 [18] was 0.46 µg/mL (≈ 0.986 µM) and the IC90 [18] was 0.94 µg/mL (≈ 2.01 µM). The IC50 [19] was 1.67 µg/mL (≈ 3.58 µM), the IC90 [19] was 3.8 µg/mL (≈ 8.15 µM) and the IC50 [20] was 0.8 µg/mL (≈ 1.71 µM). The IC90 [20] was 2.36 µg/mL (≈ 5.06 µM).
